Each structure is given as a SMILES string.

These results are taken from patent US12122802B2, “D-allose crystal and production method thereof” (MATSUTANI CHEMICAL INDUSTRY CO., LTD., priority 2019, dated 2024).

Type in all cases: physicochemical
Data set [1] is described as follows: particle size distribution by laser diffraction (Mastersizer 3000, dry dispersion unit Aero S). The note with it: average of 5 measurements, dispersion pressure 1.0 bar. From the text: The melting point (Tm) in the DSC refers to the melting start temperature of the endothermic peak obtained by DSC measurement (temperature at the extrapolated intersection of the base line and the maximum slope line of the endothermic peak), and the melting enthalpy (ΔH) refers to the area of the endothermic peak (ASTM D3418-15, Standard Test Method for Transition Temperatures and Enthalpies of Fusion and Crystallization of Polymers by Differential Scanning calorimetry). Further, in the present invention, the average particle size refers to the volume-based average particle size d[4,3], which is usually measured with a laser diffraction particle size distribution analyzer.
Next, the particle size distribution of the anhydrous D-allose crystals of the present invention was examined. Specifically, the anhydrous D-allose crystals obtained in the previous Test Nos. 1 to 5, 7 to 10 and 12, were subjected to measurement of particle size distribution under the measurement conditions shown in Table 7 using “Mastersizer 3000” and a “dry dispersion unit Aero S” manufactured by Malvern Instruments. More specifically, the measurement was repeated 5 times, and the average value of the 5 times measurements was used. No great variability was seen among the 5 times measurement values. The particle size distribution was expressed on a volume basis, and the volume-based average particle size d[4,3] and standard deviation σ were recorded. Also, the coefficient of variation CV=σ/d[4,3] was calculated in order to relatively evaluate the variation in the particle size distribution.

Data set [2] is described as follows: aspect ratio of crystals from microscopic picture (Digital microscope VHX-5000, 50x). From the text:
The “anhydrous D-allose crystals” of the present invention have an extremely large average particle size as described above and are not in a fine needle form, having a characteristic aspect ratio of the crystal. In the present invention, the aspect ratio refers to the ratio of the long diameter to the short diameter of a crystal (short diameter: minimum length of lines passing through the center of gravity of the plane shape of a crystal, long diameter: maximum length of a crystal measured orthogonal to the short diameter). In the present specification, the aspect ratio in a numerical range from A to B (A and B: arbitrary numbers) means that all of the aspect ratios of a specified number (preferably at least 10, for example 10) of crystal particles randomly selected are within the numerical range. Example of random selection of crystal particles includes a method comprising taking a microscopic picture of crystals at 20× to 50× magnification and, from the crystals on the diagonal line drawn from the upper left to the lower right of the microscopic picture taken, selecting 10 crystals with a full body shown in order from the upper left on the diagonal line. Specifically, the aspect ratio is preferably 1.0 to 10.0, more preferably 2.0 to 8.0, still more preferably 2.0 to 7.0. Next, the aspect ratio of the anhydrous D-allose crystals of the present invention was examined. Specifically, a microscopic picture of each of the anhydrous D-allose crystals obtained in the previous Test Nos. 1 to 5, 7 to 10 and 12 were taken using “Digital microscope VHX-5000” manufactured by KEYENCE Corporation (50×magnification). Among the crystals on the diagonal line drawn from the upper left to the lower right of the microscopic picture taken, 10 crystals with a full picture shown were selected in order from the upper left and then the long diameter and the short diameter of each crystal were measured for calculation of the aspect ratio (Long diameter/Short diameter, wherein short diameter refers to minimum length of lines passing through the center of gravity of the plane shape of a crystal, and long diameter refers to maximum length of a crystal measured orthogonal to the short diameter). The minimum value of the aspect ratio was 1.1 and the maximum value was 9.6 (Table 9).

Data set [3] is described as follows: repose angle measured by powder tester PT-E (fluidity of anhydrous D-allose crystals). The conditions noted are these: anhydrous crystals of Test Nos. 1 to 12, hydrous crystals dried with evaporator (30° C., 20 hPa (abs), about 2 hours), average of three directions. The procedure: The fluidity of the anhydrous D-allose crystals obtained by drying the hydrous crystals obtained in each of Tests Nos. 1 to 12 with an evaporator (30° C., 20 hPa (abs), about 2 hours) as described above was evaluated by the repose angle measured by a powder tester PT-E (manufactured by Hosokawa Micron Corporation). Specifically, a sample was dropped and deposited on a disk, and the inclination angle was measured from three directions to obtain an average value. From the average value, the degree of fluidity was evaluated according to Table 1 in the Japanese Pharmacopoeia, 17th edition, Reference Information G2 physical property-related “Powder Fluidity” (same as the so-called Carr's fluidity index table, shown as Table 4).
In order to measure the water content in the crystals obtained by each of the drying methods, drying under reduced pressure under conditions at 70° C. for 18 hours was performed to calculate the water content in the crystals from the weight loss through the drying under reduced pressure. The repose angle was measured by the method described above to determine the degree of fluidity. The yield rate was calculated by the following expression. Yield rate (%)=(D/C)×100 [Expression 4]

As for `O=C[C@H](O)[C@H](O)[C@H](O)[C@H](O)CO` [Test No. 1, D-allose], the “d [4, 3] (volume-based average particle size)” value in data set [1] (listed as 1) was determined as 472 μm. Further, the “Aspect ratio (Long diameter/Short diameter)” value in data set [2] (crystal ① of 10 selected, listed as 1) worked out at 3.5; in data set [2] (crystal ② of 10 selected, listed as 1), 3.4; in data set [2] (crystal ③ of 10 selected, listed as 1), 4.1; in data set [2] (crystal ④ of 10 selected, listed as 1) it was 4.4; in data set [2] (crystal ⑤ of 10 selected, listed as 1), 4.5; in data set [2] (crystal ⑥ of 10 selected, listed as 1), 2.2. Moreover, the “Aspect ratio (Long diameter/Short diameter)” value was found to be 4.3 in data set [2] (crystal ⑦ of 10 selected, listed as 1); 3.6 in data set [2] (crystal ⑧ of 10 selected, listed as 1); 3.5 in data set [2] (crystal ⑨ of 10 selected, listed as 1); 4.1 in data set [2] (crystal ⑩ of 10 selected, listed as 1). In addition, the “Repose angle (degrees)” value in data set [3] (listed as 1) amounted to 43.0 degrees.

As to `O=C[C@H](O)[C@H](O)[C@H](O)[C@H](O)CO` [Test No. 3, D-allose], in data set [1] (listed as 3), the “d [4, 3] (volume-based average particle size)” value stood at 450 μm. Further, the “Aspect ratio (Long diameter/Short diameter)” value in data set [2] (crystal ① of 10 selected, listed as 3) came out at 2.5; in data set [2] (crystal ② of 10 selected, listed as 3) it was 5.4; in data set [2] (crystal ③ of 10 selected, listed as 3), 3.9; in data set [2] (crystal ④ of 10 selected, listed as 3) it was 6.2; in data set [2] (crystal ⑤ of 10 selected, listed as 3), 4.5; in data set [2] (crystal ⑥ of 10 selected, listed as 3) it was 4.3. In addition, the “Aspect ratio (Long diameter/Short diameter)” value stood at 3.0 in data set [2] (crystal ⑦ of 10 selected, listed as 3); 4.7 in data set [2] (crystal ⑧ of 10 selected, listed as 3); 6.1 in data set [2] (crystal ⑨ of 10 selected, listed as 3); 1.5 in data set [2] (crystal ⑩ of 10 selected, listed as 3). In data set [3] (listed as 3), the “Repose angle (degrees)” value worked out at 42.0 degrees.

In the case of `O=C[C@H](O)[C@H](O)[C@H](O)[C@H](O)CO` [Test No. 8, D-allose], the “d [4, 3] (volume-based average particle size)” value in data set [1] (listed as 8) came to 708 μm. For the same compound, the “Aspect ratio (Long diameter/Short diameter)” value is listed as 3.5 in data set [2] (crystal ① of 10 selected, listed as 8); 7.7 in data set [2] (crystal ② of 10 selected, listed as 8); 2.0 in data set [2] (crystal ③ of 10 selected, listed as 8); 3.6 in data set [2] (crystal ④ of 10 selected, listed as 8); 3.1 in data set [2] (crystal ⑤ of 10 selected, listed as 8); 2.8 in data set [2] (crystal ⑥ of 10 selected, listed as 8). The “Aspect ratio (Long diameter/Short diameter)” value in data set [2] (crystal ⑦ of 10 selected, listed as 8) was 3.8; in data set [2] (crystal ⑧ of 10 selected, listed as 8), 4.7; in data set [2] (crystal ⑨ of 10 selected, listed as 8), 1.7; in data set [2] (crystal ⑩ of 10 selected, listed as 8), 3.3. Also, the “Repose angle (degrees)” value in data set [3] (listed as 8) is reported as 41.7 degrees.

Turning to `O=C[C@H](O)[C@H](O)[C@H](O)[C@H](O)CO` [Test No. 9, D-allose], the “d [4, 3] (volume-based average particle size)” value in data set [1] (listed as 9) came out at 600 μm. Besides, the “Aspect ratio (Long diameter/Short diameter)” value in data set [2] (crystal ① of 10 selected, listed as 9) worked out at 6.2; in data set [2] (crystal ② of 10 selected, listed as 9), 4.3; in data set [2] (crystal ③ of 10 selected, listed as 9), 5.7; in data set [2] (crystal ④ of 10 selected, listed as 9) it was 3.0; in data set [2] (crystal ⑤ of 10 selected, listed as 9) it was 3.5; in data set [2] (crystal ⑥ of 10 selected, listed as 9), 5.9. The “Aspect ratio (Long diameter/Short diameter)” value in data set [2] (crystal ⑦ of 10 selected, listed as 9) is reported as 4.6; in data set [2] (crystal ⑧ of 10 selected, listed as 9), 2.6; in data set [2] (crystal ⑨ of 10 selected, listed as 9), 3.6; in data set [2] (crystal ⑩ of 10 selected, listed as 9), 1.9. Besides, in data set [3] (listed as 9), the “Repose angle (degrees)” value worked out at 41.0 degrees.

In the case of `O=C[C@H](O)[C@H](O)[C@H](O)[C@H](O)CO` [Test No. 10, D-allose], in data set [1] (listed as 10), the “d [4, 3] (volume-based average particle size)” value turned out to be 492 μm. Moreover, the “Aspect ratio (Long diameter/Short diameter)” value in data set [2] (crystal ① of 10 selected, listed as 10) turned out to be 1.6; in data set [2] (crystal ② of 10 selected, listed as 10), 3.9; in data set [2] (crystal ③ of 10 selected, listed as 10), 5.6; in data set [2] (crystal ④ of 10 selected, listed as 10), 2.1; in data set [2] (crystal ⑤ of 10 selected, listed as 10) it was 4.0; in data set [2] (crystal ⑥ of 10 selected, listed as 10), 9.6. The “Aspect ratio (Long diameter/Short diameter)” value in data set [2] (crystal ⑦ of 10 selected, listed as 10) is reported as 2.3; in data set [2] (crystal ⑧ of 10 selected, listed as 10), 3.3; in data set [2] (crystal ⑨ of 10 selected, listed as 10), 4.6; in data set [2] (crystal ⑩ of 10 selected, listed as 10) it was 5.4. Further, the “Repose angle (degrees)” value in data set [3] (listed as 10) amounted to 41.3 degrees.
